According to patent publication US20260015358A1, “BICYCLIC DERIVATIVES, COMPOSITIONS AND USES THEREOF” (Danatlas Pharmaceuticals Co., Ltd., priority 2023, published 2026):

Assays:
[1] = molecular target: T1, WRN [UniPro: Q14191 (WRN_HUMAN), N500-C946] (Homo sapiens (Human), UniProt Q14191); assay: WRN unwinding assay (FORKF DNA, fluorescence); type: biochemical; conditions: Table 14
[2] = molecular target: T1, WRN [UniPro: Q14191 (WRN_HUMAN), N500-C946]; assay: WRN ATPase assay (ADP-Glo); type: biochemical; conditions: WRN enzymatic activity assay

T1 sequence (Q14191 500-946): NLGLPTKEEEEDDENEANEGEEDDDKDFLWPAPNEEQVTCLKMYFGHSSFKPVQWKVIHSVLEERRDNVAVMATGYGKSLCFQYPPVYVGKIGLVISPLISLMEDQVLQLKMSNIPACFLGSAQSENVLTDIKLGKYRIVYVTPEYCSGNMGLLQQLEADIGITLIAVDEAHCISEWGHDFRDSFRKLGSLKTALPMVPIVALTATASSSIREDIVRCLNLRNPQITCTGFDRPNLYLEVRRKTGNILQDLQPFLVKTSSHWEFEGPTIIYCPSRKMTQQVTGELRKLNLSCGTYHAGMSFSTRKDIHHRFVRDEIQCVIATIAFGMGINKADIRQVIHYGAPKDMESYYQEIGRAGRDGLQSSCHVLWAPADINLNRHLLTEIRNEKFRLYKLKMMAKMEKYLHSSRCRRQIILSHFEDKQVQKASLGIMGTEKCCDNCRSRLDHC

| Structure (SMILES) | IC50 [1] [nM] | IC50 [2] [nM] |
| --- | --- | --- |
| CCc1c(N2CCN(C(=O)CNC(=O)c3nccs3)CC2)c(=O)n2nc(N3CCOCC3)nc2n1CC(=O)Nc1ccc(C(F)(F)F)cc1Cl [Example 248, N-(2-(4-(4-(2-((2-Chloro-4-(trifluoromethyl)phenyl)amino)-2-oxoethyl)-5-ethyl-2-morpholino-7-oxo-4,7-dihydro-[1,2,4]triazolo[1,5-a]pyrimidin-6-yl)piperazin-1-yl)-2-oxoethyl)thiazole-2-carboxamide] | < 100 | < 100 |
| CCc1c(N2CCN(C(=O)CNC(=O)c3ncco3)CC2)c(=O)n2nc(N3CCOCC3)nc2n1CC(=O)Nc1ccc(C(F)(F)F)cc1Cl [Example 249, N-(2-(4-(4-(2-((2-Chloro-4-(trifluoromethyl)phenyl)amino)-2-oxoethyl)-5-ethyl-2-morpholino-7-oxo-4,7-dihydro-[1,2,4]triazolo[1,5-a]pyrimidin-6-yl)piperazin-1-yl)-2-oxoethyl)oxazole-2-carboxamide] | < 100 | < 100 |
| CCc1c(N2CCN(C(=O)CNC(=O)c3cc(NC)ccc3F)CC2)c(=O)n2nc(N3CCOCC3)nc2n1CC(=O)Nc1ccc(C(F)(F)F)cc1Cl [Example 250] | < 100 | < 100 |
| CCc1c(N2CCN(C(=O)CNC(=O)c3ccc(F)c(NC)c3)CC2)c(=O)n2nc(N3CCOCC3)nc2n1CC(=O)Nc1ccc(C(F)(F)F)cc1Cl [Example 251, N-(2-(4-(4-(2-((2-Chloro-4-(trifluoromethyl)phenyl)amino)-2-oxoethyl)-5-ethyl-2-morpholino-7-oxo-4,7-dihydro-[1,2,4]triazolo[1,5-a]pyrimidin-6-yl)piperazin-1-yl)-2-oxoethyl)-4-fluoro-3-(methylamino)benzamide] | < 100 | < 100 |
| CCc1c(N2CCN(C(=O)CNC(=O)c3cccc(O)c3F)CC2)c(=O)n2nc(N3CCOCC3)nc2n1CC(=O)Nc1ccc(C(F)(F)F)cc1F [Example 252, N-(2-(4-(5-Ethyl-4-(2-((2-fluoro-4-(trifluoromethyl)phenyl)amino)-2-oxoethyl)-2-morpholino-7-oxo-4,7-dihydro-[1,2,4]triazolo[1,5-a]pyrimidin-6-yl)piperazin-1-yl)-2-oxoethyl)-2-fluoro-3-hydroxybenzamide] | < 100 | < 100 |
| CCc1c(N2CCN(C(=O)CNC(=O)c3cc(F)cc(NC)c3)CC2)c(=O)n2nc(N3CCOCC3)nc2n1CC(=O)Nc1ccc(C(F)(F)F)cc1F [Example 253, N-(2-(4-(5-Ethyl-4-(2-((2-fluoro-4-(trifluoromethyl)phenyl)amino)-2-oxoethyl)-2-morpholino-7-oxo-4,7-dihydro-[1,2,4]triazolo[1,5-a]pyrimidin-6-yl)piperazin-1-yl)-2-oxoethyl)-3-fluoro-5-(methylamino)benzamide] | < 100 | < 100 |
| CCc1c(N2CCN(C(=O)CNC(=O)c3ccccc3F)CC2)c(=O)n2nc(N3CCOCC3)nc2n1CC(=O)Nc1ccc(C(F)(F)F)cc1F [Example 254, N-(2-(4-(5-Ethyl-4-(2-((2-fluoro-4-(trifluoromethyl)phenyl)amino)-2-oxoethyl)-2-morpholino-7-oxo-4,7-dihydro-[1,2,4]triazolo[1,5-a]pyrimidin-6-yl)piperazin-1-yl)-2-oxoethyl)-2-fluorobenzamide] | < 100 | < 100 |
| CCc1c(N2CCN(C(=O)CNC(=O)c3cccc(F)c3N)CC2)c(=O)n2nc(N3CCOCC3)nc2n1CC(=O)Nc1ccc(C(F)(F)F)cc1F [Example 255, 2-Amino-N-(2-(4-(5-Ethyl-4-(2-((2-fluoro-4-(trifluoromethyl)phenyl)amino)-2-oxoethyl)-2-morpholino-7-oxo-4,7-dihydro-[1,2,4]triazolo[1,5-a]pyrimidin-6-yl)piperazin-1-yl)-2-oxoethyl)-3-fluorobenzamide] | < 100 | < 100 |
| CCc1c(N2CCN(C(=O)CNC(=O)c3ccc(F)c(NC)c3)CC2)c(=O)n2nc(N3CCOCC3)nc2n1CC(=O)Nc1ccc(C(F)(F)F)cc1F [Example 256, N-(2-(4-(5-Ethyl-4-(2-((2-fluoro-4-(trifluoromethyl)phenyl)amino)-2-oxoethyl)-2-morpholino-7-oxo-4,7-dihydro-[1,2,4]triazolo[1,5-a]pyrimidin-6-yl)piperazin-1-yl)-2-oxoethyl)-4-fluoro-3-(methylamino)benzamide] | < 100 | < 100 |
| CCc1c(N2CCN(C(=O)CNC(=O)c3ncco3)CC2)c(=O)n2nc(N3CCCOCC3)nc2n1CC(=O)Nc1ccc(C(F)(F)F)cc1F [Example 257, N-(2-(4-(5-Ethyl-4-(2-((2-fluoro-4-(trifluoromethyl)phenyl)amino)-2-oxoethyl)-2-(1,4-oxazepan-4-yl)-7-oxo-4,7-dihydro-[1,2,4]triazolo[1,5-a]pyrimidin-6-yl)piperazin-1-yl)-2-oxoethyl)oxazole-2-carboxamide] | 100 to 1000 | 100 to 1000 |
| CCc1c(N2CCN(C(=O)C(=O)Nc3nccs3)CC2)c(=O)n2nc(N3CCOCC3)nc2n1CC(=O)Nc1ccc(C(F)(F)F)cc1Cl [Example 258, 2-(4-(4-(2-((2-Chloro-4-(trifluoromethyl)phenyl)amino)-2-oxoethyl)-5-ethyl-2-morpholino-7-oxo-4,7-dihydro-[1,2,4]triazolo[1,5-a]pyrimidin-6-yl)piperazin-1-yl)-2-oxo-N-(thiazol-2-yl)acetamide] | < 100 | < 100 |
| CCc1c(N2CCN(C(=O)C(=O)Nc3nccs3)CC2)c(=O)n2nc(N3Cc4ccncc4C3)nc2n1CC(=O)Nc1ccc(C(F)(F)F)cc1Cl [Example 259, 2-(4-(4-(2-((2-Chloro-4-(trifluoromethyl)phenyl)amino)-2-oxoethyl)-2-(1,3-dihydro-2H-pyrrolo[3,4-c]pyridin-2-yl)-5-ethyl-7-oxo-4,7-dihydro-[1,2,4]triazolo[1,5-a]pyrimidin-6-yl)piperazin-1-yl)-2-oxo-N-(thiazol-2-yl)acetamide] | < 100 | 100 to 1000 |
| CCc1c(N2CCN(C(=O)C(=O)Nc3nccs3)CC2)c(=O)n2nc(N3CCOCC3)nc2n1CC(=O)Nc1ccc(C(F)(F)F)cc1F [Example 260, 2-(4-(5-Ethyl-4-(2-((2-fluoro-4-(trifluoromethyl)phenyl)amino)-2-oxoethyl)-2-morpholino-7-oxo-4,7-dihydro-[1,2,4]triazolo[1,5-a]pyrimidin-6-yl)piperazin-1-yl)-2-oxo-N-(thiazol-2-yl)acetamide] | < 100 | < 100 |
| CCc1c(N2CCN(C(=O)C(=O)Nc3nccs3)CC2)c(=O)n2nc(N3CCn4cncc4C3)nc2n1CC(=O)Nc1ccc(C(F)(F)F)cc1F [Example 261, 2-(4-(2-(5,6-Dihydroimidazo[1,5-a]pyrazin-7 (8H)-yl)-5-ethyl-4-(2-((2-fluoro-4-(trifluoromethyl)phenyl)amino)-2-oxoethyl)-7-oxo-4,7-dihydro-[1,2,4]triazolo[1,5-a]pyrimidin-6-yl)piperazin-1-yl)-2-oxo-N-(thiazol-2-yl)acetamide] | < 100 | < 100 |
| CCc1c(N2CCN(C(=O)C(=O)Nc3nccs3)CC2)c(=O)n2nc(N3CCCOCC3)nc2n1CC(=O)Nc1ccc(C(F)(F)F)cc1F [Example 262, 2-(4-(5-Ethyl-4-(2-((2-fluoro-4-(trifluoromethyl)phenyl)amino)-2-oxoethyl)-2-(1,4-oxazepan-4-yl)-7-oxo-4,7-dihydro-[1,2,4]triazolo[1,5-a]pyrimidin-6-yl)piperazin-1-yl)-2-oxo-N-(thiazol-2-yl)acetamide] | < 100 | 100 to 1000 |
| CCc1c(N2CCN(C(=O)CNC(=O)c3ccccc3F)CC2)c(=O)n2nc(N3Cc4cnn(C)c4C3)nc2n1CC(=O)Nc1cc(C)cs1 [Example 263, N-(2-(4-(5-Ethyl-2-(1-methyl-4,6-dihydropyrrolo[3,4-c]pyrazol-5 (1H)-yl)-4-(2-((4-methylthiophen-2-yl)amino)-2-oxoethyl)-7-oxo-4,7-dihydro-[1,2,4]triazolo[1,5-a]pyrimidin-6-yl)piperazin-1-yl)-2-oxoethyl)-2-fluorobenzamide] | < 100 | < 100 |
| CCc1c(N2CCN(C(=O)C(=O)Nc3nccs3)CC2)c(=O)n2nc(N3CCN4C(=O)OC[C@H]4C3)nc2n1CC(=O)Nc1ccc(C(F)(F)F)cc1F [Example 264, (R)-2-(4-(5-Ethyl-4-(2-((2-fluoro-4-(trifluoromethyl)phenyl)amino)-2-oxoethyl)-7-oxo-2-(3-oxotetrahydro-3H-oxazolo[3,4-a]pyrazin-7 (1H)-yl)-4,7-dihydro-[1,2,4]triazolo[1,5-a]pyrimidin-6-yl)piperazin-1-yl)-2-oxo-N-(thiazol-2-yl)acetamide] | < 100 | < 100 |
| CCc1c(N2CCN(C(=O)CNC(=O)NC(=O)c3cc(F)ccc3F)CC2)c(=O)n2nc(C3=CCOCC3)nc2n1CC(=O)Nc1ccc(C(F)(F)F)cc1Cl [Example 265, N-((2-(4-(4-(2-((2-Chloro-4-(trifluoromethyl)phenyl)amino)-2-oxoethyl)-2-(3,6-dihydro-2H-pyran-4-yl)-5-ethyl-7-oxo-4,7-dihydro-[1,2,4]triazolo[1,5-a]pyrimidin-6-yl)piperazin-1-yl)-2-oxoethyl)carbamoyl)-2,5-difluorobenzamide] | < 100 | < 100 |
| CCc1c(N2CCN(C(=O)CNC(=O)Cc3ccccc3)CC2)c(=O)n2nc(C3=CCOCC3)nc2n1CC(=O)Nc1ccc(C(F)(F)F)cc1Cl [Example 267, N-(2-Chloro-4-(trifluoromethyl)phenyl)-2-(2-(3,6-dihydro-2H-pyran-4-yl)-5-ethyl-7-oxo-6-(4-((2-phenylacetyl)glycyl)piperazin-1-yl)-[1,2,4]triazolo[1,5-a]pyrimidin-4(7H)-yl)acetamide] | < 100 | < 100 |
| CCc1c(N2CCN(C(=O)CNC(=O)c3cncs3)CC2)c(=O)n2nc(C3=CCOCC3)nc2n1CC(=O)Nc1ccc(C(F)(F)F)cc1Cl [Example 268, N-(2-(4-(4-(2-((2-Chloro-4-(trifluoromethyl)phenyl)amino)-2-oxoethyl)-2-(3,6-dihydro-2H-pyran-4-yl)-5-ethyl-7-oxo-4,7-dihydro-[1,2,4]triazolo[1,5-a]pyrimidin-6-yl)piperazin-1-yl)-2-oxoethyl)thiazole-5-carboxamide] | < 100 | < 100 |
